Among the test systems are NCI-H226 lung; U251 CNS; SK-MEL-2 melanoma; HT29 colon; CAKI-1 renal; SK-OV-3 ovarian; DU-145 prostate; UACC-257 melanoma; SW-620 colon; HCC-2998 colon.
What all share (experiment): NCI tumour cell line growth inhibition, 48 h

SMILES strings stand for the structures.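 Grown in 96-well plates, cells were treated for 48 hours with each compound at five concentrations. Insufficient inhibition: endpoint recorded as highest concentration tested. At the TGI there is no net growth.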 Bounds are passed on as bounds.

Turning to `O=C1C=CC(=O)C(CNc2ccc(C(=O)OC34CC5CC(CC(C5)C3)C4)cc2)=C1`, the TGI in the experiment on NCI-H226 lung was 4.47 µM; in the experiment on U251 CNS, 16.4 µM; in the experiment with SK-MEL-2 melanoma, 44.3 µM; with HT29 colon, 24.6 µM; in the experiment with CAKI-1 renal, 2.71 µM; in the experiment on SK-OV-3 ovarian, greater than 57.4 µM. Besides, the TGI came to 47.6 µM in the experiment on DU-145 prostate, 18.2 µM in the experiment on UACC-257 melanoma, 27.4 µM in the experiment on SW-620 colon and 32.4 µM in the experiment on HCC-2998 colon.

The values are drawn from PubChem BioAssay (NCI).
